Assay [1] has as its system RORγt. The assay is described as follows: RORγt nuclear translocation in IL-6/23-stimulated human neutrophils (nuclear extract western blot, confocal). The assay is classed as cell-based. As for the experimental part: (§1) Neutrophils were isolated from peripheral blood of healthy donors. Peripheral blood was incubated in 3% Dextran, and neutrophils isolated by Ficoll gradient centrifugation (Fisher Scientific), with neutrophil purity determined by staining with Wright-Giemsa.
Murine or human neutrophils were suspended at a density of 10^6 cells/ml and incubated with […] of recombinant mouse or human IL-6 and 2 μg/ml IL-23 in RPMI, and the cells were maintained for 1-3 h at 37° C. in 5% CO2. Various inhibitors were used for assessing STAT3 activation. For STAT3, neutrophils were treated with either the STAT3-SH2 inhibitor, Stattic (20 μM) obtained from Tocris, or the JAK-1, 2 inhibitor, INC424, (aka Ruxolitinib; 20 μM (Selleck BioChem)). For the determination of RORγt-dependent signaling, SR1001 (20 μM; Sigma) was used, which inhibits RORγt binding to the IL-17 promoter site. All inhibitors were added to neutrophils 2 h prior to recombinant IL-6 and IL-23 stimulation. […]
Neutrophils collected from primed or naïve C57BL/6 mice or unstimulated murine or human neutrophils were incubated with recombinant IL-6 and IL-23 for 60 min. […] Total protein was quantified using the BCA method, denatured with 2× Laemmli buffer (Sigma) and heated to 95° C. for 5 minutes. […] Ten μg of total protein was analyzed on a 12% SDS polyacrylamide gel, and transferred to nitrocellulose. […]

Assay [2] concerns IL-17RC. The assay is described as follows: IL-17RC gene expression by qPCR in IL-6/23-stimulated murine neutrophils. The assay is classed as cell-based. The conditions noted are these: IL-6/23 1 h, FIG. 6A. The text has this:
Total bone marrow-derived cells were isolated from mouse femurs and tibias by flushing with RPMI and an 18-gauge needle. Erythrocytes were lysed with 1× lysis buffer (eBioscience), and bone marrow cells were separated on a Percoll (Fisher) gradient by density centrifugation (52%, 69%, and 78%). Cells at the 69-78% interface were harvested, and neutrophil purity (>98%) confirmed by flow cytometry and Wright-Giemsa staining.
(§2) Murine or human neutrophils were suspended at a density of 10^6 cells/ml and incubated with […] of recombinant mouse or human IL-6 and 2 μg/ml IL-23 in RPMI, and the cells were maintained for 1-3 h at 37° C. in 5% CO2. Various inhibitors were used for assessing STAT3 activation. For STAT3, neutrophils were treated with either the STAT3-SH2 inhibitor, Stattic (20 μM) obtained from Tocris, or the JAK-1, 2 inhibitor, INC424, (aka Ruxolitinib; 20 μM (Selleck BioChem)). For the determination of RORγt-dependent signaling, SR1001 (20 μM; Sigma) was used, which inhibits RORγt binding to the IL-17 promoter site. All inhibitors were added to neutrophils 2 h prior to recombinant IL-6 and IL-23 stimulation.
(§3) Neutrophil and corneal cell RNA was extracted using the RNeasy mini kit according to the manufacturer's directions (Qiagen, Valencia, Calif.). The quality of RNA was checked by spectrophotometry, and only samples with a 260/280 ratio of 2.0 were used to generate cDNA. The SuperScript First Strand synthesis system (Invitrogen) was used to generate cDNA according to the manufacturer's directions.
(§4) The SYBR green system (Applied Biosystems, Carlsbad, Calif.) was utilized for quantitative PCR (qPCR) using ABI Biosystems. PCR products were then run on a 1% agarose gel, and visualized using ethidium bromide. PCR products were compared to Actb (encoding the β-actin gene) or GAPDH as the controls for gel loading.

In assay [3] the test system is RORγt. The assay is described as follows: RORγt nuclear translocation in IL-6/23-stimulated murine neutrophils (confocal imaging). The assay is classed as cell-based, C57BL/6 mice. Particulars: IL-6+IL-23 stimulated, inhibitor 20 μM, FIG. 4D. From the text:
Total bone marrow-derived cells were isolated from mouse femurs and tibias by flushing with RPMI and an 18-gauge needle. Erythrocytes were lysed with 1× lysis buffer (eBioscience), and bone marrow cells were separated on a Percoll (Fisher) gradient by density centrifugation (52%, 69%, and 78%). Cells at the 69-78% interface were harvested, and neutrophil purity (>98%) confirmed by flow cytometry and Wright-Giemsa staining. Murine or human neutrophils were suspended at a density of 10^6 cells/ml and incubated with […] of recombinant mouse or human IL-6 and 2 μg/ml IL-23 in RPMI, and the cells were maintained for 1-3 h at 37° C. in 5% CO2. Various inhibitors were used for assessing STAT3 activation. […] For the determination of RORγt-dependent signaling, SR1001 (20 μM; Sigma) was used, which inhibits RORγt binding to the IL-17 promoter site. All inhibitors were added to neutrophils 2 h prior to recombinant IL-6 and IL-23 stimulation. Corneas were dissected and incubated for 1 h at 37° C. in collaganese (80 U/ml) (C0130; Sigma-Aldrich), and washed in FACS buffer (PBS+1% FBS+0.5% Sodium azide). Ten corneas were pooled and analyzed by intracellular flow cytometry. Conversely, bone marrow cells or neutrophils were collected as described above and washed in FACS buffer. […] Cells were analyzed using a C6 Accuri flow cytometer (BD). […]

The subject of assay [4] is IL-17RC. The assay is described as follows: IL-17RC gene expression by qPCR in IL-6/23-stimulated human neutrophils. Type of assay: cell-based. The conditions noted are these: IL-6/23 1 h, FIG. 6B. As for the experimental part:
as §1, §2, §3, §4
A general note: Real-time PCR tracks product formation cycle by cycle.

On to `O=[N+]([O-])c1ccc2c(c1)S(=O)(=O)C=C2` [Stattic], for which the “RORγt localisation by confocal microscopy” value in the assay with RORγt [1] is “only detected in the cytoplasm”. Moreover, in the assay with RORγt [1] (western blot, FIG. 5B), the “RORγt in nuclear extracts” value was “no longer detectable”. For the same molecule, the IL-17RC expression result with IL-17RC [2] and with IL-17RC [4] was “did not inhibit” in each case. In addition, the “RORγt localisation (cytoplasm vs nucleus)” value with RORγt [3] is listed as “only detected in the cytoplasm”.

The record behind these values is US9814720B2, “Compositions and methods of inhibiting IL-17 expression of neutrophils” (priority 2014, dated 2017).
